Measurements from US12365658B2, “Benzothia(di)azepine compounds and their use as bile acid modulators” (Albireo AB, priority 2021, dated 2025).

Experiments:
Human LBAT = molecular target: T1, Human LBAT (Homo sapiens, UniProt Q14973); experiment: LBAT (h/m) assay, human LBAT-overexpressing cells, 3H-taurocholic acid uptake; type: cell-based; settings: 0.3 μM 3H-taurocholic acid and 7.5 μM cold taurocholic acid, 20 minutes, read-out: hLBAT IC50
T1 construct: expressed in transfected cells; kept under Geneticin selection
T1 sequence (Q14973 1-349): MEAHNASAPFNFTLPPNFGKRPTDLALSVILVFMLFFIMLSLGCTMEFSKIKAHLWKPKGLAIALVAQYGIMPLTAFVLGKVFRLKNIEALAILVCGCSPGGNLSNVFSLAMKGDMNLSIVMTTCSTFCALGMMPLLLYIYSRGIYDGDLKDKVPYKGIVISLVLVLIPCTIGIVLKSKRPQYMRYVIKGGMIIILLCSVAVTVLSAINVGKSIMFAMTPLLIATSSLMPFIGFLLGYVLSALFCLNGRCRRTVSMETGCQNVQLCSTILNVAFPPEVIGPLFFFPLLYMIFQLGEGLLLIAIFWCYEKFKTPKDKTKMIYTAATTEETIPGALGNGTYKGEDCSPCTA
Protocol: LBAT (h/m) Assay Protocol
20,000 cells (Human or Mouse LBAT-overexpressing cells) were seeded in 96-wells plate (Corning CLS3809) in 100 μL MEM-alpha medium (Gibco 12571-063) supplemented with 10% FBS (Gibco 10438026) containing Geneticin (Gibco 10131-027) (1 mg/mL) and incubated at 37° C. in 5% CO2 for 24 hours. After incubation, media was decanted from the wells and cells were washed two times with 300 μL of basal MEM-alpha medium (FBS-free). After decanting basal MEM-alpha medium each time, plates were tapped against paper towel to ensure maximum removal of residual media.
For human LBAT, incubation mix was prepared by adding test inhibitor dilutions (3-fold serial dilution in DMSO (Sigma D2650), 10 points) in MEM-alpha (without FBS) containing 0.3 μM 3H-taurocholic acid (ARC ART-1368) and 7.5 μM cold taurocholic acid (Sigma T4009) (maintaining 0.2% final DMSO concentration). For mouse LBAT, incubation mix was prepared by adding test inhibitor dilutions (3-fold serial dilution in DMSO, 10 points) in MEM-alpha (without FBS) containing 0.3 μM 3H-taurocholic acid and 25 μM cold taurocholic acid maintaining 0.2% final DMSO concentration).
50 μL of incubation mix containing test inhibitors was then added to the wells (in duplicate) and the plates were incubated for 20 minutes in a CO2 incubator at 37° C. After incubation, the reaction was stopped by keeping the plates on ice water mix for 2-3 minutes and then the incubation mix was aspirated completely from the wells. The wells were washed two times with 250 μL of chilled unlabelled 1 mM taurocholic acid dissolved in HEPES (Gibco 15630080)-buffered (10 mM) HBSS (Gibco 14175079) (pH 7.4). The plates were tapped against a paper towel after every wash to ensure maximum removal of blocking buffer.
100 μL of MicroScint-20 (PerkinElmer 6013621) was added to the wells and kept overnight at room temperature before reading the plates in TopCount NXT™ Microplate Scintillation and Luminescence Counter from PerkinElmer under 3H Test protocol (set at 120 seconds reading time per well, with normal plate orientation).
Preparation of Test Compound Dilutions
All test compounds were provided in powder form at room temperature. 10 mM DMSO stocks of the test compounds were prepared, aliquoted and stored at −20° C. From the 10 mM DMSO stock of the compounds, a 3-fold serial dilution in DMSO was prepared to get a total of 10 dilutions of the test compounds. 0.5 μL of this dilution in DMSO was added to 250 μL of FBS-free basal media containing 3H-taurocholic acid and cold taurocholic acid to prepare the incubation mixture.

Bioavailability studies = type: in vivo, Male mice (C57BL/6 or CD1) or Wistar rats; settings: male, plasma; single intravenous dose 1 mg/kg and single oral dose 10 mg/kg; species per compound not given
Protocol: Male mice (C57BL/6 or CD1) or Wistar rats of 8-9 weeks old were used. For each test compound, two groups of 3 animals each were used. One group was administered a single intravenous dose of 1 mg/kg (vehicle 100% DMSO) through the tail vein and the other group was administered a single oral dose of 10 mg/kg through gavage needle. The group that was administered an oral dose was fasted overnight. Blood samples were collected after 0.083, 0.25, 0.5, 1, 2, 4, 6, 8 and 24 hours following intravenous administration, and after 0.25, 0.5, 1, 2, 4, 6, 8 and 24 hours following oral administration. Blood samples were taken from saphenous vein. 0.2% EDTA was used as the anticoagulant. The samples were analyzed by a discovery grade bioanalytical method developed for the estimation of test compound in plasma, using an LC-MS/MS system.

| SMILES | IC50 (Human LBAT) [nM] | bioavailability (Bioavailability studies) [%] |
| --- | --- | --- |
| CCCCC1CN(c2ccccc2)c2cc(SC)c(OCC3(C(=O)O)CC3)cc2S(=O)(=O)N1C (centres unmarked) [Example 3, 1-(((3-Butyl-2-methyl-7-(methylthio)-1,1-dioxido-5-phenyl-2,3,4,5-tetrahydro-1,2,5-benzothiadiazepin-8-yl)oxy)methyl)cyclopropane-1-carboxylic acid] | 13 |  |
| CCCCC1CN(c2ccccc2)c2cc(SC)c(OCC(C)(OC)C(=O)O)cc2S(=O)(=O)N1C (single isomer, unassigned) [24, diastereomer 2] | 16 |  |
| CCCCC1CN(c2ccc(F)cc2)c2cc(SC)c(OCC(C)(C)C(=O)O)cc2S(=O)(=O)N1C (centres unmarked) [Example 13, 3-((3-butyl-5-(4-fluorophenyl)-2-methyl-7-(methylthio)-1,1-dioxido-2,3,4,5-tetrahydro-1,2,5-benzothiadiazepin-8-yl)oxy)-2,2-dimethylpropanoic acid] | 3.3 |  |
| CCCCC1CN(c2ccccc2)c2cc(SC)c(OCC(C)(OC)C(=O)O)cc2S(=O)(=O)N1C (centres unmarked) [Example 22, 3-((3-Butyl-2-methyl-7-(methylthio)-1,1-dioxido-5-phenyl-2,3,4,5-tetrahydro-1,2,5-benzothiadiazepin-8-yl)oxy)-2-methoxy-2-methylpropanoic acid] | 28 |  |
| CCCCC1CN(c2ccccc2)c2cc(SCC)c(OCC3(C(=O)O)CC3)cc2S(=O)(=O)N1C (single isomer, unassigned) [8, enantiomer 1] | 5 | 40 |
| CCCCC1CN(c2ccccc2)c2cc(SC)c(OCC(OC)C(=O)O)cc2S(=O)(=O)N1C (single isomer, unassigned) [32, diastereomer 1] | 22 |  |
| CCCCC1CN(c2ccccc2)c2cc(SC)c(OCC(C)(OC)C(=O)O)cc2S(=O)(=O)N1C (single isomer, unassigned) [24, diastereomer 1] | 8.4 |  |
| CCCCC1CN(c2ccc(F)cc2)c2cc(SCC)c(OCC(O)C(=O)O)cc2S(=O)(=O)N1C (centres unmarked) [Example 33, 3-((3-butyl-7-(ethylthio)-5-(4-fluorophenyl)-2-methyl-1,1-dioxido-2,3,4,5-tetrahydro-1,2,5-benzothiadiazepin-8-yl)oxy)-2-hydroxypropanoic acid] | 6 |  |
| CCCCC1CN(c2ccccc2)c2cc(SCC)c(OCC(C)(C)C(=O)O)cc2S(=O)(=O)N1C (centres unmarked) [Example 5, 3-((3-Butyl-7-(ethylthio)-2-methyl-1,1-dioxido-5-phenyl-2,3,4,5-tetrahydro-1,2,5-benzothiadiazepin-8-yl)oxy)-2,2-dimethylpropanoic acid] | 8.9 |  |
| CCCCC1CN(c2ccccc2)c2cc(SCC)c(OCC3(C(=O)O)CC3)cc2S(=O)(=O)N1C (centres unmarked) [Example 7, 1-(((3-Butyl-7-(ethylthio)-2-methyl-1,1-dioxido-5-phenyl-2,3,4,5-tetrahydro-1,2,5-benzothiadiazepin-8-yl)oxy)methyl)cyclopropane-1-carboxylic acid] | 25 |  |
| CCCCC1CN(c2ccccc2)c2cc(SC)c(OCC(C)(C)C(=O)O)cc2S(=O)(=O)N1C (single isomer, unassigned) [2, enantiomer 2] | 2.3 | 100 |
| CCCCC1CN(c2ccccc2)c2cc(SC)c(OCC3(C(=O)O)CC3)cc2S(=O)(=O)N1C (single isomer, unassigned) [4, enantiomer 2] | 7.4 | 17 |
| CCCCC1CN(c2ccccc2)c2cc(SC)c(OCC(C)(OC)C(=O)O)cc2S(=O)(=O)N1C (single isomer, unassigned) [Example 23, 3-((3-Butyl-2-methyl-7-(methylthio)-1,1-dioxido-5-phenyl-2,3,4,5-tetrahydro-1,2,5-benzothiadiazepin-8-yl)oxy)-2-methoxy-2-methylpropanoic acid] | 14 |  |
| CCCCC1CN(c2ccccc2)c2cc(SCC)c(OCC(C)(C)C(=O)O)cc2S(=O)(=O)N1C (single isomer, unassigned) [6, enantiomer 2] | 6.2 |  |
